Test results: US9492471B2, “Methods of treating a disease or disorder associated with Bruton'S Tyrosine Kinase” (Celgene Avilomics Research, Inc., priority 2013, dated 2016)
Where two headings read alike, the source gives them in different places.

Legend:
Assay in all cases: HotSpot kinase profiling
Type in all cases: biochemical
TRKB = target: T1, TRKB (Homo sapiens, UniProt Q16620)
T1 construct: purchased Reaction Biology Corp
How it was run: (§1)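 Radio-isotope P81 filtration format. Substrate + required cofactors in reaction buffer, kinase added, 2 h RT. Stop, wash with 0.1% phosphoric acid, detect. % inhibition vs DMSO; mean of duplicates where repeated.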

DMPK = target: T2, DMPK (Homo sapiens, UniProt Q09013)
T2 construct: purchased Reaction Biology Corp
T2 sequence (Q09013 1-629): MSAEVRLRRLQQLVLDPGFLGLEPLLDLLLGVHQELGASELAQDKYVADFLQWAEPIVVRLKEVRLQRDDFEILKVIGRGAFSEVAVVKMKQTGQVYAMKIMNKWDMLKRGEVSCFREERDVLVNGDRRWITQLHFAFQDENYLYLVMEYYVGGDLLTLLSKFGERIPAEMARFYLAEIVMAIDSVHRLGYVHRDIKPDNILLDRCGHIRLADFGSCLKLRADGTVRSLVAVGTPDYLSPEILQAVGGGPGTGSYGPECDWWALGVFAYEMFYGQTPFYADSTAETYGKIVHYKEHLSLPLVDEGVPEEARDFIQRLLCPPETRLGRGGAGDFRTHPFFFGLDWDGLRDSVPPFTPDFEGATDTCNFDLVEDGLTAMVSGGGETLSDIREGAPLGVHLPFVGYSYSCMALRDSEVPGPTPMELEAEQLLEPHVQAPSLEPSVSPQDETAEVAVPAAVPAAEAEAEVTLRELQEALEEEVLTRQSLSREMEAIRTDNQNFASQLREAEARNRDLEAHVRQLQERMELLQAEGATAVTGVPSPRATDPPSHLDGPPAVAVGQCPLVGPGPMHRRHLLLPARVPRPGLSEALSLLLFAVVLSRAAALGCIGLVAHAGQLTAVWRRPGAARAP
How it was run: as §1

IR = target: T3, IR (Homo sapiens, UniProt P06213)
T3 construct: purchased Reaction Biology Corp
How it was run: as §1

DMPK2 = target: T4, DMPK2 (Homo sapiens, UniProt Q6DT37)
T4 construct: purchased Reaction Biology Corp
How it was run: as §1

MLK3/MAP3K11 = target: T5, MLK3/MAP3K11 (Homo sapiens, UniProt Q16584)
T5 construct: purchased Reaction Biology Corp
How it was run: as §1

IRR/INSRR = target: T6, IRR/INSRR (Homo sapiens, UniProt P14616)
T6 construct: purchased Reaction Biology Corp
How it was run: as §1

HIPK3 = target: T7, HIPK3 (Homo sapiens, UniProt Q9H422)
T7 construct: purchased Reaction Biology Corp
How it was run: as §1

AKT2 = target: T8, AKT2 (Homo sapiens, UniProt P31751)
T8 construct: purchased Reaction Biology Corp
How it was run: as §1

SGK2 = target: T9, SGK2 (Homo sapiens, UniProt Q9HBY8)
T9 construct: purchased Reaction Biology Corp
T9 sequence (Q9HBY8 1-367): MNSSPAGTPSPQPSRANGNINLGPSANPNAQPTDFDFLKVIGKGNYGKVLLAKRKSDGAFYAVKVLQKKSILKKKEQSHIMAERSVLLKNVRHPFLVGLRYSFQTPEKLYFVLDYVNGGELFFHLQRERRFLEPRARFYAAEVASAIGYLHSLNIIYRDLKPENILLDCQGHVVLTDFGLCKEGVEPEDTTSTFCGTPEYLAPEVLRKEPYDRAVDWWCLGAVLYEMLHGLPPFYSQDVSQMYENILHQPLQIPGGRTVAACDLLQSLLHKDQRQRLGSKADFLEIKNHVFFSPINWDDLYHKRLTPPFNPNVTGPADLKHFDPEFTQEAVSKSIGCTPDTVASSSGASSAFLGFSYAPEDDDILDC
How it was run: as §1

c-Src = target: T10, c-Src (Homo sapiens, UniProt P12931)
T10 construct: purchased Reaction Biology Corp
How it was run: as §1

PBK/TOPK = target: T11, PBK/TOPK (Homo sapiens, UniProt Q96KB5)
T11 construct: purchased Reaction Biology Corp
T11 sequence (Q96KB5 1-322): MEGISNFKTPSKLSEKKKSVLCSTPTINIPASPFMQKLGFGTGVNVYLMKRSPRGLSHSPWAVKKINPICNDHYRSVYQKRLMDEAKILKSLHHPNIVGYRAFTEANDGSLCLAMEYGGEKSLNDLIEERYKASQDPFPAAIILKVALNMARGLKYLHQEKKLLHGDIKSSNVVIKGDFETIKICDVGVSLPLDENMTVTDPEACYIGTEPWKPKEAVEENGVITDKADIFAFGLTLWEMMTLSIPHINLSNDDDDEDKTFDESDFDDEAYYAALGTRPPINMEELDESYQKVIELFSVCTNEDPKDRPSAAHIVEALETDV
How it was run: as §1

VRK2 = target: T12, VRK2 (Homo sapiens, UniProt Q86Y07)
T12 construct: purchased Reaction Biology Corp
How it was run: as §1

CDK9/cyclin K = target: T13, CDK9/cyclin K (Homo sapiens, UniProt P50750)
T13 construct: purchased Reaction Biology Corp
How it was run: as §1

[1] = read-out: % Enzyme Activity (relative to DMSO controls) Run 1
[2] = read-out: % Enzyme Activity (relative to DMSO controls) Run 2

T4 sequence (Q6DT37 whole entry): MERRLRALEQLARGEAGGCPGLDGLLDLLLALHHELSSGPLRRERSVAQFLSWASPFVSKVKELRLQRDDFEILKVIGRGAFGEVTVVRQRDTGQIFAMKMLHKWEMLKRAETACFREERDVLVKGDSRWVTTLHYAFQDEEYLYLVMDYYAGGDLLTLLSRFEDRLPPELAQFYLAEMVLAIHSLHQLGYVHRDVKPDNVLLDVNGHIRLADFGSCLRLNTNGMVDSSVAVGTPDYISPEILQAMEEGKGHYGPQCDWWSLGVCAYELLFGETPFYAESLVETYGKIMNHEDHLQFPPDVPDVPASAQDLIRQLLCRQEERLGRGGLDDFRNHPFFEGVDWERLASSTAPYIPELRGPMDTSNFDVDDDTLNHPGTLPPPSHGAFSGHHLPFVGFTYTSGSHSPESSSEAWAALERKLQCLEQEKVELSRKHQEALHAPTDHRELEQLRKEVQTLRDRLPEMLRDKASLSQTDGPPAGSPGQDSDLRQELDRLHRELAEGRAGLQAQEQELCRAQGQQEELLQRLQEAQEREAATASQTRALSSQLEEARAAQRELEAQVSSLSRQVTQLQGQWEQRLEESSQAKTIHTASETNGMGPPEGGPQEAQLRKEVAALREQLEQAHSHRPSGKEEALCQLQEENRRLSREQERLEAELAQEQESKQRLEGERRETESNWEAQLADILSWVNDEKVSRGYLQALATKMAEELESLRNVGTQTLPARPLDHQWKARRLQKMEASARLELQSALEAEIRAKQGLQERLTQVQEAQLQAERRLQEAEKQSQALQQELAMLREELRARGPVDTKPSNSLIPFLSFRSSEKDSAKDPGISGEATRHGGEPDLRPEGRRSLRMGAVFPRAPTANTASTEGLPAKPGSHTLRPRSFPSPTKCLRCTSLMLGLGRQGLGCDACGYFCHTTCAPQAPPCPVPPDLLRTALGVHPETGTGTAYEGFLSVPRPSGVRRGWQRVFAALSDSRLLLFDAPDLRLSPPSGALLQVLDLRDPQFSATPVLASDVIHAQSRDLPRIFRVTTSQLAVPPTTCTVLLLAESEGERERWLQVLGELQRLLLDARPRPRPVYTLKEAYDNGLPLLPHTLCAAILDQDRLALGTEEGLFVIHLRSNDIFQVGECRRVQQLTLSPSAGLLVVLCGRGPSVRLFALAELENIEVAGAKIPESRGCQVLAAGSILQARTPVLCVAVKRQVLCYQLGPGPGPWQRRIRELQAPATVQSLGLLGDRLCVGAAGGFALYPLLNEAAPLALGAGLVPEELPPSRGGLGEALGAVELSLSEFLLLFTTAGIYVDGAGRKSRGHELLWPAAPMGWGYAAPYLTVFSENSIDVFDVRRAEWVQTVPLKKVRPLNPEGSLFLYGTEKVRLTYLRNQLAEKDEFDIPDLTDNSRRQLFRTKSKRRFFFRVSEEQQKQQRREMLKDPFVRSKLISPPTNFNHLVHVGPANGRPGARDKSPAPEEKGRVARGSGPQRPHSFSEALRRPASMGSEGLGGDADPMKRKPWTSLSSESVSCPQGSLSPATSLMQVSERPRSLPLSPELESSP
T8 sequence (P31751 whole entry): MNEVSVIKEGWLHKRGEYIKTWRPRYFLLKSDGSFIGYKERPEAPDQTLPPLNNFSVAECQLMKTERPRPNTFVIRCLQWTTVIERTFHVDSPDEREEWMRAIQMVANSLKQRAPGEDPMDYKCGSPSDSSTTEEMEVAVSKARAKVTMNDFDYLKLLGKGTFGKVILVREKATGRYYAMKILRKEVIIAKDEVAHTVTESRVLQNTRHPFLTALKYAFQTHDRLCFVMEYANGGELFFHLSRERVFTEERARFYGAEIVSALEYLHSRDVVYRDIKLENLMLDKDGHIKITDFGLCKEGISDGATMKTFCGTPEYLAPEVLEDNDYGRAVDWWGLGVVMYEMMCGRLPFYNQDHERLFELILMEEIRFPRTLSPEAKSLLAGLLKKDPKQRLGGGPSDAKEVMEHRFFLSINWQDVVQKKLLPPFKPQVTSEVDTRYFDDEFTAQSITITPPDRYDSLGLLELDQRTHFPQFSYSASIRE
T3 sequence (P06213 28-1382): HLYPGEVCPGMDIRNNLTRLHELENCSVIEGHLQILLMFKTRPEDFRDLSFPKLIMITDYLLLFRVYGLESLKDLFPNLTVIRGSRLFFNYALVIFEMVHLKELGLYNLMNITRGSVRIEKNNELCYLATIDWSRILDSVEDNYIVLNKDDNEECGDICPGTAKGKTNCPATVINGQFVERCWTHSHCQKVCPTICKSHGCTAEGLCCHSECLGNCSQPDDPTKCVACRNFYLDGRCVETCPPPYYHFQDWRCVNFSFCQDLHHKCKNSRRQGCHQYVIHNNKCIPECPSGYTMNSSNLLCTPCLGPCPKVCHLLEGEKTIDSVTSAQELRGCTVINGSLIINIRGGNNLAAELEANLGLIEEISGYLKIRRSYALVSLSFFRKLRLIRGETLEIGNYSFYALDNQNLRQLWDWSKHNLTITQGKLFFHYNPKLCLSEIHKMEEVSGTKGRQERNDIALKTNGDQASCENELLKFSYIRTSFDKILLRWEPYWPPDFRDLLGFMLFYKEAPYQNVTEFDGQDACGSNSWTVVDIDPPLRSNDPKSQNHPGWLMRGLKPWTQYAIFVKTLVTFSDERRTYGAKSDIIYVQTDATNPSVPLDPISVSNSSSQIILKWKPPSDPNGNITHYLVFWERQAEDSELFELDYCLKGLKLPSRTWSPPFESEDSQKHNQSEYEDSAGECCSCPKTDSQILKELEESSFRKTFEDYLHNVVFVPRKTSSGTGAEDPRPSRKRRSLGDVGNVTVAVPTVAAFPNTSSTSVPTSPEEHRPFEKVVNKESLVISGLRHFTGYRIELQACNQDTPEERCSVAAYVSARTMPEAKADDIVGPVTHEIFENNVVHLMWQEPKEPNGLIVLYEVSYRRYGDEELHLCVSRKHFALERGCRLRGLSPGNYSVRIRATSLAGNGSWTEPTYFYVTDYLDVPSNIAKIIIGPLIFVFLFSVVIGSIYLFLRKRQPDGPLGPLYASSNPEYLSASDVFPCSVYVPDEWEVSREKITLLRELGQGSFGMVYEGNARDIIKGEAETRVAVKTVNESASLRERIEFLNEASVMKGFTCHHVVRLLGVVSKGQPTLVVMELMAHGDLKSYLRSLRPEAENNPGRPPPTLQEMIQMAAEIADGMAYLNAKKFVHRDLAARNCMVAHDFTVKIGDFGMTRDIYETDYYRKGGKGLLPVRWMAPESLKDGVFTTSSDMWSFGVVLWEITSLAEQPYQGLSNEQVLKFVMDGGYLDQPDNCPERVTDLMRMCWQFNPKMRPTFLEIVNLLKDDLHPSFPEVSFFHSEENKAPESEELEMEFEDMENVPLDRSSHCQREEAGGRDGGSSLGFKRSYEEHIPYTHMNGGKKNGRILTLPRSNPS
T1 sequence (Q16620 32-822): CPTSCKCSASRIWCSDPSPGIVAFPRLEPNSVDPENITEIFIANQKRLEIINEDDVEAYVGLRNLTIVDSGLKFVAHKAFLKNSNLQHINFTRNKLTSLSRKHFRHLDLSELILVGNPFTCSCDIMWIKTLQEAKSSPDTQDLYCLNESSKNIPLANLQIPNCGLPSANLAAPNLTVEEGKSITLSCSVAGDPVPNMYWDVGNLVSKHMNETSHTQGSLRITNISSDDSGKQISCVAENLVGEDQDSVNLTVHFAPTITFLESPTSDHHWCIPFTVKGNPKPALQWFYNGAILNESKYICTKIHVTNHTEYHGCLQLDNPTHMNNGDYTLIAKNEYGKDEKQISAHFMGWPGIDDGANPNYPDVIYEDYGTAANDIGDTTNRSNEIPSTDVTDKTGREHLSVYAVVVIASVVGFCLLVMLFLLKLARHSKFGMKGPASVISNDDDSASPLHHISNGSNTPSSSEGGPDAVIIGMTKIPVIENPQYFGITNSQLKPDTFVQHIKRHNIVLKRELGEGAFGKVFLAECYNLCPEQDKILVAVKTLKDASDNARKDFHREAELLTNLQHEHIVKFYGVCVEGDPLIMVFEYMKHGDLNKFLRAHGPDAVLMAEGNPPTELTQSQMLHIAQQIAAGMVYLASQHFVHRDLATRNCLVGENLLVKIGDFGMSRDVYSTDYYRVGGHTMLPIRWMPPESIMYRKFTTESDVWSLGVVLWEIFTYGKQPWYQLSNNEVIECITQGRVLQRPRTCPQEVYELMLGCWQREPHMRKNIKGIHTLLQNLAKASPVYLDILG
T10 sequence (P12931 whole entry): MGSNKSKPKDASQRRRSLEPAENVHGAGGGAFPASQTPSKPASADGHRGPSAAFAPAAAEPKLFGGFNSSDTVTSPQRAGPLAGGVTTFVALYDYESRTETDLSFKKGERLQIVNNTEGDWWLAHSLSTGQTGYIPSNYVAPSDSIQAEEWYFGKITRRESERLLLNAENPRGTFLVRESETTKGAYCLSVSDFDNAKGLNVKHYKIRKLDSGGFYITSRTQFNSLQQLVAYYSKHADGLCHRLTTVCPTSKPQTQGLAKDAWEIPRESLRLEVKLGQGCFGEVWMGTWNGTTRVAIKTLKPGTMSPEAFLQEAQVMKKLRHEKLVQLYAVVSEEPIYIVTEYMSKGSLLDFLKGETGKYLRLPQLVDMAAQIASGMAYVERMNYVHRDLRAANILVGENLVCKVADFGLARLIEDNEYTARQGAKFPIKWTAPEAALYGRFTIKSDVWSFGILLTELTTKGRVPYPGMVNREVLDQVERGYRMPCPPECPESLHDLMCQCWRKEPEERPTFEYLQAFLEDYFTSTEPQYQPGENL

`C=CC(=O)Nc1cccc(Nc2nc(Nc3ccc(OCCOC)c(F)c3)ncc2F)c1` [Compound 2] gave an inhibition at 3 µM (TRKB) of 14.2%, a remaining activity at 3 µM (TRKB; [1]) of 86.5% and a remaining activity at 3 µM (TRKB; [2]) of 85%. It also gave an inhibition at 3 µM (DMPK) of -3.25%, a remaining activity at 3 µM (DMPK; [1]) of 104% and a remaining activity at 3 µM (DMPK; [2]) of 102%. For the same compound, the inhibition at 3 µM (IR) was 15.4%, the remaining activity at 3 µM (IR; [1]) was 84.5% and the remaining activity at 3 µM (IR; [2]) was 84.7%. It also gave an inhibition at 3 µM (DMPK2) of 1.54%, a remaining activity at 3 µM (DMPK2; [1]) of 97.4% and a remaining activity at 3 µM (DMPK2; [2]) of 99.6%. The inhibition at 3 µM (MLK3/MAP3K11) was 73.4%, the remaining activity at 3 µM (MLK3/MAP3K11; [1]) was 27.9% and the remaining activity at 3 µM (MLK3/MAP3K11; [2]) was 25.2%. For the same compound, the inhibition at 3 µM (IRR/INSRR) was 10.1%, the remaining activity at 3 µM (IRR/INSRR; [1]) was 88.9% and the remaining activity at 3 µM (IRR/INSRR; [2]) was 91%. The inhibition at 3 µM (HIPK3) was -15.1%, the remaining activity at 3 µM (HIPK3; [1]) was 112% and the remaining activity at 3 µM (HIPK3; [2]) was 118%. For the same compound, the inhibition at 3 µM (AKT2) was 4.23%, the remaining activity at 3 µM (AKT2; [1]) was 93.7% and the remaining activity at 3 µM (AKT2; [2]) was 97.9%. It also gave an inhibition at 3 µM (SGK2) of 26%, a remaining activity at 3 µM (SGK2; [1]) of 71.4% and a remaining activity at 3 µM (SGK2; [2]) of 76.6%. For the same compound, the inhibition at 3 µM (c-Src) was 72%, the remaining activity at 3 µM (c-Src; [1]) was 28.2% and the remaining activity at 3 µM (c-Src; [2]) was 27.9%. For the same compound, the inhibition at 3 µM (PBK/TOPK) was 3.07%, the remaining activity at 3 µM (PBK/TOPK; [1]) was 98.6% and the remaining activity at 3 µM (PBK/TOPK; [2]) was 95.3%. For the same compound, the inhibition at 3 µM (VRK2) was 5.06%, the remaining activity at 3 µM (VRK2; [1]) was 94% and the remaining activity at 3 µM (VRK2; [2]) was 95.9%. It also gave an inhibition at 3 µM (CDK9/cyclin K) of 18.1%, a remaining activity at 3 µM (CDK9/cyclin K; [1]) of 81.7% and a remaining activity at 3 µM (CDK9/cyclin K; [2]) of 82.2%.
